Where only a bound is given, the exact number is not on record here.

The target in this assay is T1, HPK1 (Homo sapiens, UniProt Q92918).
T1 construct: A HiBiT tag was introduced by CRISPR on the N terminus of HPK1 in Jurkat cells; host or cells: Jurkat (ATCC TIB-152), monoclonal CRISPR HiBiT knock-in line
T1 sequence (Q92918 whole entry): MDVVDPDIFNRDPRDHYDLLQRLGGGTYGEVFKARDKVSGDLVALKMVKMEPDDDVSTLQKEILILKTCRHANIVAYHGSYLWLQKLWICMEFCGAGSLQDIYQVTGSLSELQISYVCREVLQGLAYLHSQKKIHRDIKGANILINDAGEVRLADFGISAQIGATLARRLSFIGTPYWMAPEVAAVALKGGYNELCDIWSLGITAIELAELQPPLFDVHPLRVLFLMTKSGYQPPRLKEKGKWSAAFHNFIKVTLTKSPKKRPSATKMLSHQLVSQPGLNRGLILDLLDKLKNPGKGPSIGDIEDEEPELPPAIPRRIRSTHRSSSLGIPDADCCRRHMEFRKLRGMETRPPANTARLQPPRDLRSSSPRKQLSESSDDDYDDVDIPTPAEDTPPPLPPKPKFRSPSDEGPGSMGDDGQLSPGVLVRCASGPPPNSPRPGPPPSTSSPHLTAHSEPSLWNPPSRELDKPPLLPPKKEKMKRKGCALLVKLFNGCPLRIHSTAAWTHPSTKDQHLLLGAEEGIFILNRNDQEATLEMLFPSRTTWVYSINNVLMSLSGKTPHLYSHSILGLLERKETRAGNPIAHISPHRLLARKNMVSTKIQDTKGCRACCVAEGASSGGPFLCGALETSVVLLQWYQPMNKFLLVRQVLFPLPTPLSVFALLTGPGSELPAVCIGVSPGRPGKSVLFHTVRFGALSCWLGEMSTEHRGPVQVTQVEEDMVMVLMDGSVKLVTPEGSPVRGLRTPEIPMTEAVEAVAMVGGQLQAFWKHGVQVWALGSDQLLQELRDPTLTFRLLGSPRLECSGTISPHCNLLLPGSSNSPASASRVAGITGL
Kind of assay: HPK1 Cellular HiBiT Degradation Assay. Type of assay: cell-based. The settings on record: HiBiT-tagged HPK1 Jurkat cells, 24 hours, 10 uM to 0.1 nM; Dmax = 100 minus lowest % HPK1 remaining vs DMSO vehicle. In a few lines: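 Dmax is derived from four-parameter curves of % HPK1 remaining, as 100 minus the lowest value, normalized to DMSO-treated cells with parental Jurkat background subtracted. HiBiT-HPK1 knock-in Jurkat cells got compound for 24 hours (final 10 uM to 0.1 nM, 11 points) before lytic HiBiT luminescence. Cytotoxicity was checked on parallel CellTiter-Glo plates.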
A general note: The HiBiT peptide binds its large partner to form an active luciferase.
For orientation: Dmax means the greatest extent of degradation seen. Lower therefore signals a partial loss of target. Turning to `Cc1cc(F)c(Nc2nc(-c3ccc4c(c3)N([C@H]3C[C@@H](N5CCCCC5)C3)C(=O)C43CCN(C(=O)C[C@H]4CC[C@H](Nc5cccc6c5C(=O)N(C5CCC(=O)NC5=O)C6=O)CC4)CC3)cc3ncn(C(C)C)c23)cc1C(=O)NC(C)C` (stereo partly drawn) [Example 80, 5-((6-(1′-(2-((1R,4R)-4-((2-(2,6-dioxopiperidin-3-yl)-1,3-dioxoisoindolin-4-yl)amino)cyclohexyl)acetyl)-2-oxo-1-((1s,3s)-3-(piperidin-1-yl)cyclobutyl)spiro[indoline-3,4′-piperidin]-6-yl)-3-isopropyl-3H-imidazo[4,5-c]pyridin-4-yl)amino)-4-fluoro-N-isopropyl-2-methylbenzamide], the Dmax is 45 to 65%.

Consider `Cc1cc(F)c(Nc2nc(-c3ccc4c(c3)N([C@H]3C[C@@H](N5CCCCC5)C3)C(=O)C43CCN(C(=O)[C@@H]4CCN(C(=O)[C@H]5CC[C@H](Nc6ccc7c(c6)C(=O)N(C6CCC(=O)NC6=O)C7=O)CC5)C4)CC3)cc3ncn(C(C)C)c23)cc1C(=O)NC(C)C` (stereo partly drawn) [Example 81, 5-((6-(1′-((3R)-1-((1R,4R)-4-((2-(2,6-dioxopiperidin-3-yl)-1,3-dioxoisoindolin-5-yl)amino)cyclohexane-1-carbonyl)pyrrolidine-3-carbonyl)-2-oxo-1-((1s,3s)-3-(piperidin-1-yl)cyclobutyl)spiro[indoline-3,4′-piperidin]-6-yl)-3-isopropyl-3H-imidazo[4,5-c]pyridin-4-yl)amino)-4-fluoro-N-isopropyl-2-methylbenzamide], for which the Dmax lay in the range of 45 to 65%.

Take `Cc1cc(F)c(Nc2nc(-c3ccc4c(c3)N([C@H]3C[C@@H](N5CCCCC5)C3)C(=O)C43CCN(C(=O)[C@@H]4CCN(C(=O)C[C@H]5CC[C@H](Nc6cccc7c6C(=O)N(C6CCC(=O)NC6=O)C7=O)CC5)C4)CC3)cc3ncn(C(C)C)c23)cc1C(=O)NC(C)C` (stereo partly drawn) [Example 82, 5-((6-(1′-((3R)-1-(2-((1R,4R)-4-((2-(2,6-dioxopiperidin-3-yl)-1,3-dioxoisoindolin-4-yl)amino)cyclohexyl)acetyl)pyrrolidine-3-carbonyl)-2-oxo-1-((1s,3s)-3-(piperidin-1-yl)cyclobutyl)spiro[indoline-3,4′-piperidin]-6-yl)-3-isopropyl-3H-imidazo[4,5-c]pyridin-4-yl)amino)-4-fluoro-N-isopropyl-2-methylbenzamide]: the greatest degradation seen (Dmax) was 45 to 65%.

`Cc1cc(F)c(Nc2nc(-c3ccc4c(c3)N([C@H]3C[C@@H](N5CCCCC5)C3)C(=O)C43CCN(C(=O)c4ccc(N5CCN(c6cccc7c6C(=O)N(C6CCC(=O)NC6=O)C7=O)CC5)nc4)CC3)cc3ncn(C(C)C)c23)cc1C(=O)NC(C)C` (stereo partly drawn) [Example 83, 5-((6-(1′-(6-(4-(2-(2,6-dioxopiperidin-3-yl)-1,3-dioxoisoindolin-4-yl)piperazin-1-yl)nicotinoyl)-2-oxo-1-((1s,3)-3-(piperidin-1-yl)cyclobutyl)spiro[indoline-3,4′-piperidin]-6-yl)-3-isopropyl-3H-imidazo[4,5-c]pyridin-4-yl)amino)-4-fluoro-N-isopropyl-2-methylbenzamide] returned a Dmax of less than 45%.

The compound `Cc1cc(F)c(Nc2nc(-c3ccc4c(c3)N([C@H]3C[C@@H](N5CCCCC5)C3)C(=O)C43CCN(C(=O)c4cnc(N5CCN(c6cccc7c6C(=O)N(C6CCC(=O)NC6=O)C7=O)CC5)cn4)CC3)cc3ncn(C(C)C)c23)cc1C(=O)NC(C)C` (stereo partly drawn) [Example 84, 5-((6-(1′-(5-(4-(2-(2,6-dioxopiperidin-3-yl)-1,3-dioxoisoindolin-4-yl)piperazin-1-yl)pyrazine-2-carbonyl)-2-oxo-1-((1s,3s)-3-(piperidin-1-yl)cyclobutyl)spiro[indoline-3,4′-piperidin]-6-yl)-3-isopropyl-3H-imidazo[4,5-c]pyridin-4-yl)amino)-4-fluoro-N-isopropyl-2-methylbenzamide] came in with a Dmax of 45 to 65%.

`Cc1cc(F)c(Nc2nc(-c3ccc4c(c3)N([C@H]3C[C@@H](N5CCCCC5)C3)C(=O)C43CCN(C(=O)c4ccc(N5CCN(c6ccc7c(c6)C(=O)N(C6CCC(=O)NC6=O)C7=O)CC5)nc4)CC3)cc3ncn(C(C)C)c23)cc1C(=O)NC(C)C` (stereo partly drawn) [Example 85, 5-((6-(1′-(6-(4-(2-(2,6-dioxopiperidin-3-yl)-1,3-dioxoisoindolin-5-yl)piperazin-1-yl)nicotinoyl)-2-oxo-1-((1s,3s)-3-(piperidin-1-yl)cyclobutyl)spiro[indoline-3,4′-piperidin]-6-yl)-3-isopropyl-3H-imidazo[4,5-c]pyridin-4-yl)amino)-4-fluoro-N-isopropyl-2-methylbenzamide] showed a Dmax of less than 45%.

Regarding `Cc1cc(F)c(Nc2nc(-c3ccc4c(c3)N([C@H]3C[C@@H](N5CCCCC5)C3)C(=O)C43CCN(C(=O)[C@@H]4CCN(C(=O)c5cnc(N6CCN(c7cccc8c7C(=O)N(C7CCC(=O)NC7=O)C8=O)CC6)cn5)C4)CC3)cc3ncn(C(C)C)c23)cc1C(=O)NC(C)C` (stereo partly drawn) [Example 86, 5-((6-(1′-((3R)-1-(5-(4-(2-(2,6-dioxopiperidin-3-yl)-1,3-dioxoisoindolin-4-yl)piperazin-1-yl)pyrazine-2-carbonyl)pyrrolidine-3-carbonyl)-2-oxo-1-((1s,3s)-3-(piperidin-1-yl)cyclobutyl)spiro[indoline-3,4′-piperidin]-6-yl)-3-isopropyl-3H-imidazo[4,5-c]pyridin-4-yl)amino)-4-fluoro-N-isopropyl-2-methylbenzamide], the Dmax was in the range of 45 to 65%.

With `Cc1cc(F)c(Nc2nc(-c3ccc4c(c3)N([C@H]3C[C@@H](N5CCCCC5)C3)C(=O)C43CCN(C(=O)[C@H]4CCN(C(=O)[C@H]5CC[C@H](Nc6cccc7c6C(=O)N(C6CCC(=O)NC6=O)C7=O)CC5)C4)CC3)cc3ncn(C(C)C)c23)cc1C(=O)NC(C)C` (stereo partly drawn) [Example 87, 5-((6-(1′-((3S)-1-((1R,4S)-4-((2-(2,6-dioxopiperidin-3-yl)-1,3-dioxoisoindolin-4-yl)amino)cyclohexane-1-carbonyl)pyrrolidine-3-carbonyl)-2-oxo-1-((1s,3R)-3-(piperidin-1-yl)cyclobutyl)spiro[indoline-3,4′-piperidin]-6-yl)-3-isopropyl-3H-imidazo[4,5-c]pyridin-4-yl)amino)-4-fluoro-N-isopropyl-2-methylbenzamide], the Dmax is less than 45%.

Regarding `Cc1cc(F)c(Nc2nc(-c3ccc4c(c3)N([C@H]3C[C@@H](N5CCCCC5)C3)C(=O)C43CCN(C(=O)c4ccc(C5CCN(CC(=O)NCCNc6cccc7c6C(=O)N(C6CCC(=O)NC6=O)C7=O)CC5)cc4)CC3)cc3ncn(C(C)C)c23)cc1C(=O)NC(C)C` (stereo partly drawn) [Example 88, 5-[(6-{1′-[4-(1-{[(2-{[2-(2,6-dioxopiperidin-3-yl)-1,3-dioxoisoindol-4-yl]amino}ethyl)carbamoyl]methyl}piperidin-4-yl)benzoyl]-2-oxo-1-[(1s,3s)-3-(piperidin-1-yl)cyclobutyl]spiro[indole-3,4′-piperidin]-6-yl}-3-isopropylimidazo[4,5-c]pyridin-4-yl)amino]-4-fluoro-N-isopropyl-2-methylbenzamide], the maximal degradation (Dmax) was greater than 65%.
